Each structure is given as a SMILES string.

For one assay, the system named is alphafetoprotein. Briefly: Clinical case reports: monitoring of serum alphafetoprotein level under daily oral simvastatin. The format is in vivo, patients. How it is done: (§1) In order to avoid unforeseen side effects, the treatment was initiated at a 20 mg dose once daily for one week. The dose was then increased to 40 mg daily during the following week, and was again increased to 60 mg daily during the third week. During the fourth week, the dose was increased to 80 mg daily (two tablets of 40 mg each) and remained the same thereafter. Following the administration of simvastatin as described above, the patients' alphafetoprotein levels were monitored on a monthly basis until values reached normal levels and then every three months thereafter in association with liver function tests and coagulation studies as part of a follow-up. In addition, an abdominal ultrasound test was performed every four months in an attempt to identify any new liver masses, and MRI (magnetic resonance imaging) studies of the liver were performed.

The subject of another assay is liver cancer. Nature of the assay: Clinical case reports: imaging studies of the liver (abdominal ultrasound, MRI) for new liver masses. In kind it is in vivo, patients. How it is done: as §1

On to `CCC(C)(C)C(=O)OC1C[C@@H](C)C=C2C=C[C@H](C)[C@H](CC[C@@H]3C[C@@H](O)CC(=O)O3)[C@H]21` (relative stereo) [simvastatin, butanoic acid, 2,2-dimethyl-,1,2,3,7,8,8a-hexahydro-3,7-dimethyl-8-[2-(tetrahydro-4-hydroxy-6-oxo-2H-pyran-2-yl)-ethyl]-1-naphthalenyl ester, [1S-[1α,3α,7β,8β(2S*,4S*),-8aβ]]], for which the “time until alphafetoprotein level normalized” value is “four” in the assay on alphafetoprotein (Case No. 1: Hepatitis B, rapidly increasing alphafetoprotein, progressively increased dosages of simvastatin); not above 5 months in the assay on alphafetoprotein (Case No. 2: Hepatitis B, progressively increasing alphafetoprotein, increasing doses of simvastatin); not above 2 months in the assay with alphafetoprotein (Case No. 3: Hepatitis C, alphafetoprotein above 50 before treatment, protocol administration). Moreover, the “alphafetoprotein level after patient stopped taking simvastatin” value in the assay with alphafetoprotein (Case No. 1: after stopping simvastatin) is 33. Moreover, in the assay on alphafetoprotein (Case No. 1: re-introduced at progressively increased dosages), the “alphafetoprotein level after simvastatin was re-introduced” value was “normalized and has remained normalized”. Also, the “alphafetoprotein level on maintenance dosages of simvastatin” value with alphafetoprotein (Case No. 2) is “remained normalized”. Further, in the assay with alphafetoprotein (Case No. 3), the “alphafetoprotein level after normalization” value is listed as “remained normalized”. Besides, the “elevation of alphafetoprotein during observation period” value in the assay with alphafetoprotein (Case No. 4: patients with Hepatitis B and C or other liver cirrhosis, normal alphafetoprotein, simvastatin daily since diagnosis) is on record as “None of these patients showed an elevation of alphafetoprotein”. In addition, in the assay on alphafetoprotein (patients with an elevated alphafetoprotein level (above 10 ng/mL) who underwent treatment), the “course of alphafetoprotein level” value is reported as “progressively decline over several weeks to several months to normal values”. For the same compound, the “liver tumor mass in repeated imaging studies” value in the assay on liver cancer (Case No. 1), in the assay on liver cancer (Case No. 2) and with liver cancer (Case No. 3) was “never showed any liver tumor mass” throughout. In addition, in the assay on liver cancer (patients with an elevated alphafetoprotein level who underwent treatment), the “subsequent development of liver cancer” value is given as “None of the patients subsequently developed liver cancer”. Besides, the “malignancy detected by careful imaging studies” value with liver cancer (patients with known liver diseases at high risk, liver diseases continued to progress) is reported as “no malignancy was ever detected”.

The values above are taken from patent US20020151583A1, “Prevention of liver cancer by administration of simvastatin” (priority 2001, published 2002).
